Assay results reported in publication PMC9697131, “Agomelatine, Ketamine and Vortioxetine Attenuate Energy Cell Metabolism—In Vitro Study” (International Journal of Molecular Sciences, 2022).
Where “and” joins values, the source holds several entries; their conditions need not be identical. Identical values can stand only once. Like-named read-outs stand apart in the source and are kept apart here.

Legend:
MAO-A = molecular target: T1, MAO-A (Sus scrofa, UniProt Q6Q2J0); experiment: MAO-A activity, radiolabeled [3H]serotonin substrate; assay type: biochemical, pig; conditions: for MAO-A Inhibition (type): 0.1–300 µM; for MAO-A Hillslope / MAO-A Residual Activity: mean
T1 construct: from tissue; host or cells: pig brain mitochondria
T1 sequence (Q6Q2J0 1-527): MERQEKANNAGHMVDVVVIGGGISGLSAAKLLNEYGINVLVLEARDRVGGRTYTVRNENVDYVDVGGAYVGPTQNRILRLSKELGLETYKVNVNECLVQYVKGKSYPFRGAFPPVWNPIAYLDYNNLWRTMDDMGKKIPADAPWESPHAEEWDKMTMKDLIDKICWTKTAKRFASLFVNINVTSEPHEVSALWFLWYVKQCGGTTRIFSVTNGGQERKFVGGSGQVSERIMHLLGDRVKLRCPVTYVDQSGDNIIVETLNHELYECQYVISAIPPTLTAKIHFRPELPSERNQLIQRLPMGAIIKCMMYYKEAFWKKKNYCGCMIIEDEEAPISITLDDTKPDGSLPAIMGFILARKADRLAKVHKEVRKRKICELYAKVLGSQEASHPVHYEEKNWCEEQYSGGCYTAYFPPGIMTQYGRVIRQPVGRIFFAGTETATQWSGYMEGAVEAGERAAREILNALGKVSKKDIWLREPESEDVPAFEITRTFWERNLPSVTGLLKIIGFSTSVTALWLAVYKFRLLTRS
Experimental: (§1) Pig brains were obtained from a slaughterhouse. Mitochondrial fraction isolation and purification from brain cortex were performed as previously described. Briefly, grey matter from pig brains was homogenized and crude mitochondrial fraction was isolated and then centrifuged on the sucrose gradient to obtain purified mitochondrial fraction. The freshly purified mitochondria were kept on ice until the assays were performed and were used for measurements of the mitochondrial oxygen consumption rate, measurements of ATP and ROS formation. Frozen mitochondria (stored at −70 °C) were used for the following enzyme activity measurements: ETC complexes, citrate synthase (CS) and malate dehydrogenase (MDH) activity.
(§2) Mitochondria in KH buffer at final concentration of 800 µg/mL were preincubated with the tested drugs in a final concentration range of 0.1–300 µM for 60 min at 37 °C. For each measurement, there was a corresponding drug-free control (DMSO). Radiolabeled substrates ([^3H]serotonin for MAO-A and [^14C]PEA for MAO-B) were added to initiate the reaction. The reaction was carried out at 37 °C for 20 min for MAO-A and for 1 min for MAO-B, and the reaction was stopped by hydrochloric acid. The radioactivity of the organic phases of the extracts were measured by liquid scintillation counting (LS 6000IC, Beckman Instruments, Inc., Fullerton, CA, USA).
(§3) The inhibition of respiration rate and MAO activity were analyzed by A four-parameter logistic regression with Prism software (GraphPad Software, San Diego, CA, USA) was used to analyze the respiratory rate inhibition and activity of MAO. […] The IC50 represents the drug concentration required to inhibit the difference between the baseline and the residual value of the mitochondrial oxygen flux or MAO activity by 50%.

[1] = system: complex IV (cytochrome c oxidase); experiment: Complex IV (cytochrome c oxidase) activity, spectrophotometric; assay type: biochemical; conditions: pig brain mitochondria, mean ± SD
Experimental: as §1
(§4) Ultrasonication and incubation of mitochondria with the tested drugs for 30 min at 30 °C was performed before measurement with a corresponding drug-free control (DMSO) for every measurement. Mitochondrial enzymes activities were determined spectrophotometrically as absorbance using a GENESYS 180 UV-Vis Spectrophotometer (Thermo Fisher Scientific, Waltham, MA, USA).
The medium consisted of KH2PO4, and the reaction was initiated by reduced cyt c. The decrease in absorbance was measured at 550 nm for 3 min. The final protein concentration was 10 µg/mL and final drugs concentrations 10, 50 and 100 µM. Drug-free control (DMSO) was used as a control for each measurement.

[2] = system: complex I (NADH dehydrogenase); experiment: Complex I (NADH dehydrogenase) activity, spectrophotometric; assay type: biochemical; conditions: 100 μM drug, pig brain mitochondria, mean ± SD
Experimental: as §1, §4
The reaction mixture consisted of KH2PO4, MgCl2 and KCN and the reaction was started by adding decylubiquinone and NADH. The rotenone-sensitive NADH oxidation reaction was measured at 340 nm for 5 min. The final protein concentration was 150 µg/mL and final drugs concentrations 2.5, 5, 10, 50 and 100 µM. Drug-free control (DMSO) was used as a control for each measurement.

[3] = system: complex I-linked respiration, pig brain mitochondria; experiment: Complex I-linked mitochondrial respiration, high-resolution respirometry; assay type: biochemical; conditions: for effect on complex I-linked respiration (in words): titration 0.125–100 µM
Experimental: as §1
The mitochondrial oxygen consumption rate was measured by high-resolution respirometry using Oxygraph-2k (Oroboros Instruments Corp, Innsbruck, Austria). The final protein concentration was 0.05–0.14 mg/mL and the reaction mixture consisted of 2 mM malate, 5 mM pyruvate, 1.25 mM ADP and […] for complex I-linked respiration; 1.25 mM ADP, 0.75 mM MgCl2, 1 µM rotenone and 10 mM succinate for complex II-linked respiration. The following […] simultaneous measurements were assessed: a titration with the drug to the final drug concentrations of 0.125–100 µM in one chamber and a titration with a drug-free control (DMSO) in the second oxygraph chamber.
The respiration rate was expressed as pmol O2 consumed/second/mg of a protein.
as §3

MAO-B = molecular target: T2, MAO-B (Sus scrofa, UniProt Q6PLK3); experiment: MAO-B activity, radiolabeled [14C]PEA substrate; assay type: biochemical, pig; conditions: for MAO-B Inhibition (type): 0.1–300 µM; for MAO-B Hillslope / MAO-B Residual Activity: mean
T2 construct: from tissue; host or cells: pig brain mitochondria
T2 sequence (Q6PLK3 1-520): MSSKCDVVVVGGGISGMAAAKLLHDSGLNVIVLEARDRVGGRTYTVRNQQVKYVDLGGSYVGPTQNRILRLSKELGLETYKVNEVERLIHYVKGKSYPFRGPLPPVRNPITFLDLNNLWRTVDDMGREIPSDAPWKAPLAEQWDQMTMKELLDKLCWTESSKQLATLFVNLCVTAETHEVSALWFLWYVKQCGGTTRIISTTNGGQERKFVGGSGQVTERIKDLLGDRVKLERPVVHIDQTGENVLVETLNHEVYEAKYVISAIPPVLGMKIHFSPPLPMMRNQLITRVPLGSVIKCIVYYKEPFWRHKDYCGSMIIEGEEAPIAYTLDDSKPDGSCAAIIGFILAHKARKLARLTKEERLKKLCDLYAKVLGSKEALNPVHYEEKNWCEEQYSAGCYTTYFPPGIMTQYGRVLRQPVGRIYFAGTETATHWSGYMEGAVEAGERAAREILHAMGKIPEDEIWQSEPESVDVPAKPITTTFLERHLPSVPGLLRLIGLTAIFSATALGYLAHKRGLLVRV
Experimental: as §1, §2, §3

[4] = mean ± SEM, 4 measurements, read-out: MAO-A IC50

| Compound | MAO-A Inhibition (type) (MAO-A) | IC50 (MAO-A; [4]) | MAO-A Hillslope (MAO-A; 4 measurements) | MAO-A Residual Activity (MAO-A; 4 measurements) | complex IV activity (relative to control = 100%) ([1]; 10 μM drug) | complex IV activity (relative to control = 100%) ([1]; 50 μM drug) | complex IV activity (relative to control = 100%) ([1]; 100 μM drug) | complex I activity (relative to control = 100%) [2] | effect on complex I-linked respiration (in words) [3] | MAO-B Inhibition (type) (MAO-B) | MAO-B Inhibition (type) (MAO-B; listed as AGO) | complex I activity (relative to control = 100%) ([2]; listed as VOR) | complex I-linked respiration rate (relative to control = 100%) ([3]; 50 μM drug, mean ± SD) | residual activity of complex I-linked respiration ([3]; four-parameter logistic fit, mean ± SEM) | IC50 ([3]; four-parameter logistic fit, mean ± SEM, listed as VOR) | IC50 (MAO-B; mean ± SEM, 4 measurements, read-out: MAO-B IC50) | MAO-B Hillslope (MAO-B; 4 measurements) | MAO-B Residual Activity (MAO-B; 4 measurements) | IC50 (MAO-A) | IC50 (MAO-B) |
| --- | --- | --- | --- | --- | --- | --- | --- | --- | --- | --- | --- | --- | --- | --- | --- | --- | --- | --- | --- | --- |
| COc1ccc2cccc(CCNC(C)=O)c2c1 [agomelatine] | partial | 8.2 µM | 3.40 | 0.190 rel.u. | 45.0 ± 3.6% | 17.9 ± 3.4% | 12.8 ± 4.1% | 73.7 ± 5.1% | did not affect complex I-linked respiration at all | none | did not affect its activity at all | – | – | – | – | – | – | – | – | – |
| Cc1ccc(Sc2ccccc2N2CCNCC2)c(C)c1 [vortioxetine] | partial | 7.33 µM | 1.76 | 0.109 rel.u. | – | – | 9.3 ± 3.8% | – | full inhibitor of complex I-linked respiration | partial | – | 5.5 ± 1.8% and 5.5% | 22.5 ± 7.1% | 4.7% | 10.5 µM | 18.2 µM | 2.58 | 0.229 rel.u. | – | – |
| CNC1(c2ccccc2Cl)CCCCC1=O (stereo not drawn) [ketamine] | partial | – | 1.50 | 0.259 rel.u. | – | – | 3.9 ± 3.0% | 91.2 ± 6.6% | inhibited complex I-linked respiration very weakly | weak | – | – | – | – | – | – | 2.12 | 0.707 rel.u. | 10.4 µM | 51.2 µM |
